Measured values as given in patent US20250042891A1, “Compound containing structure of a heteroaromatic ring, pharmaceutical composition thereof and application thereof” (SHANGHAI YINGLI PHARMACEUTICAL CO., LTD, priority 2023, published 2025).
pIC50: −log10 of the molar value.

Legend:
PARG (389-976) = PARG (389-976) (Homo sapiens (Human), UniProt Q86W56); assay: PARG enzyme inhibition assay (TR-FRET); assay type: biochemical
Description: PARG in vitro assays were conducted in standard 384-well plates in a total volume of 15 μL. 5 μL of PARG (389-976) (manufactured by Chempartner Chemical Co., Ltd.) in buffer (50 mM Tris-HCL 7.5, 30 mM KCl, 1 mM EDTA, 3 mM DTT, tween-20 0.01%, BSA 0.025%) was added at a final concentration of 1.5 pM to the 384-well plates containing the compounds to be tested, which was incubated for 30 min at room temperature. To the above mixture was added 5 μL Bio PARylated His-TEV-PARP1(2-1014) substrate (manufactured by Chempartner Chemical Co., Ltd.) at a final concentration of 12 nM, after addition, the resulting mixture was incubated for 30 minutes at room temperature. Then to the mixture was added detection reagent (5 μL) which was buffered with 50 mM Tris-HCL 7.5, 30 mM KCl, 1 mM EDTA, 3 mM DTT, tween-20 0.01%, BSA 0.025%, and consisted of 3 μM of compound PDD00017273 and 9 nM Mab anti-6HIS XL665 (Cisbio: 61HISXLA) and 0.9 nM streptavidin affinity terbium cryptate (Cisbio:610SATLA), all at 3× working concentrations (final concentrations of 1 μM, 3 nM and 0.3 nM, respectively). After 120 min incubation in the dark at room temperature, TR-FRET signals were measured at Ex 340 and Em 665 and Em 615. The ratio for each well was calculated as Em 665/Em 615 and the compound inhibition rate was calculated based on the obtained data.

HCC1428 = assay: CTG assay for proliferation inhibition of cell lines; assay type: cell-based; conditions: HCC1428, 7 days, CellTiter Glo
Description: (§1) The assay was conducted on either 384-well plates or 96-well plates. The procedures are as follows:
(§2) The cell suspensions were added to 384- or 96-well plates (384-well plate: 50 μL; 96-well plate: 100 μL) except for peripheral wells. The plates were incubated in a carbon dioxide incubator overnight, HCC1395, HCC1428 and NCI-H460 were placed in a carbon dioxide incubator of 5%, […] overnight. Prepared compounds (10 concentration gradients by serial 3-fold dilution) were added to the wells using the HPD300 micro-dosing instrument. The cell plates were incubated in a carbon dioxide incubator for 7 days. HCC1395, HCC1428 and NCI-H460 were incubated in a 5%, 37° CO2 incubator. On the day of plate measurement, 384- or 96-well plates were first equilibrated at room temperature for 10-30 minutes, then to the 384- or 96-well plate was added CellTiter Glo reagent (384-well plate: 25 μL; 96-well plate: 100 μL), shaken for 10 minutes away from light, and incubated for 10 minutes. The incubated plates were placed into Victor NIVO reader plates, and the pharmacodynamic inhibition curves were plotted and IC50 values were calculated using XLFit.

HCC1395 = assay: as above; assay type: cell-based; conditions: HCC1395, 7 days, CellTiter Glo
Description: as §1, §2

[1] = class symbol, Bio PARylated His-TEV-PARP1 substrate, TR-FRET
[2] = numeric value in parentheses under the class symbol

PARG (389-976), sequence (Q86W56 389-976): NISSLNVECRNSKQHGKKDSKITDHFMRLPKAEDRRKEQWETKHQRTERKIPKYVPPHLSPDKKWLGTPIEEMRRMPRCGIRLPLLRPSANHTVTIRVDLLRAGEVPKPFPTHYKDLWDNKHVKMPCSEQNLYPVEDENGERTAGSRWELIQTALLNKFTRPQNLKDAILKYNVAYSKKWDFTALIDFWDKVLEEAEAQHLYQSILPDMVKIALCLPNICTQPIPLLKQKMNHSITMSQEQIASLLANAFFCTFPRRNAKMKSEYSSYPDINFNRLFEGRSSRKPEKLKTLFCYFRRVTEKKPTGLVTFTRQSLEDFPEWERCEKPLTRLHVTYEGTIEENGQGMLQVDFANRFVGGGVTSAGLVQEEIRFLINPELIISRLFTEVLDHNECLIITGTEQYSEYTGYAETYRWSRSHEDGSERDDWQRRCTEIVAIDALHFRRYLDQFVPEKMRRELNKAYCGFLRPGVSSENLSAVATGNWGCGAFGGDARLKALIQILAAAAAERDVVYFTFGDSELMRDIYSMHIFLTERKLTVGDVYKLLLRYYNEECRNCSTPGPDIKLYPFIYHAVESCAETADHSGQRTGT

SMILES | pIC50 (PARG (389-976); [1]) | pIC50 (PARG (389-976); [2]) | IC50 (HCC1428) [µM] | IC50 (HCC1395) [µM]
COCCn1nc(-c2nnc(C(F)F)s2)c2cc(S(=O)(=O)NC3(C#N)CC3)cc(C3=CCN(S(=O)(=O)C(C)C)CC3)c21 [Compound 1] | > 9.00 | 9.70 | – | –
CC(C)S(=O)(=O)c1ccc(-c2cc(S(=O)(=O)NC3(C#N)CC3)cc3c(-c4nnc(C(F)(F)F)s4)nn(C)c23)nc1 [Compound 49] | 6.00 to 7.00 | – | – | –
COCCn1nc(-c2nnc(C(F)F)s2)c2cc(S(=O)(=O)NC3(C#N)CC3)cc(N3CCN(S(=O)(=O)C(C)C)CC3)c21 [Compound 2] | > 9.00 | 9.57 | 0.413 | –
CC(C)SC1CC=C(c2cc(S(=O)(=O)NC3(C#N)CC3)cc3c(-c4nnc(C(F)F)s4)nn(C)c23)CC1 (centres unmarked) [Compound 29] | 7.00 to 8.00 | – | – | –
CC(C)S(=O)(=O)N1CCC(O)(c2cc(S(=O)(=O)NC3(C#N)CC3)cc3c(-c4nnc(C(F)F)s4)n[nH]c23)CC1 [Compound 27] | 8.00 to 9.00 | – | – | –
CC(C)S(=O)(=O)N1CCC(O)(c2cc(S(=O)(=O)NC3(C#N)CC3)cc3c(-c4nnc(C(F)F)s4)nn(C)c23)CC1 [Compound 28] | 8.00 to 9.00 | – | – | –
CC(C)CS(=O)(=O)N1CC=C(c2cc(S(=O)(=O)NC3(C#N)CC3)cc3c(-c4nnc(C(F)F)s4)nn(C)c23)CC1 [Compound 13] | 8.00 to 9.00 | – | – | –
CC(C)S(=O)(=O)N1CCC(c2cc(S(=O)(=O)NC3(C#N)CC3)cc3c(-c4nnc(C(F)(F)F)s4)nn(C)c23)=C(C(=O)O)C1 [Compound 54] | 7.00 to 8.00 | – | – | –
CC(C)S(=O)(=O)N1CC=C(c2cc(S(=O)(=O)NC3(C#N)CC3)cc3c(-c4nnc(C(F)F)s4)nn(CC(N)=O)c23)CC1 [Compound 66] | 8.00 to 9.00 | – | – | –
Cn1nc(-c2nnc(C(F)F)s2)c2cc(S(=O)(=O)NC3(C#N)CC3)cc(C3=CCN(S(=O)(=O)C4CC4)CC3)c21 [Compound 11] | > 9.00 | – | – | –
CC(C)S(=O)(=O)N1CC=C(c2cc(S(=O)(=O)NC3(C#N)CC3)cc3c(-c4nnc(C(F)F)s4)csc23)CC1 [Compound 10] | 8.00 to 9.00 | – | – | –
CC(C)S(=O)(=O)N1CC=C(c2cc(S(=O)(=O)NC3(C#N)CC3)cc3c(-c4nnc(C(F)(F)F)s4)nn(Cc4ccccc4)c23)CC1 [Compound 62] | 7.00 to 8.00 | – | – | –
CC(C)S(=O)(=O)c1ncc(-c2cc(S(=O)(=O)NC3(C#N)CC3)cc3c(-c4nnc(C(F)F)s4)nn(C)c23)cn1 [Compound 43] | 6.00 to 7.00 | – | – | –
CC(C)Sc1ncc(-c2cc(S(=O)(=O)NC3(C#N)CC3)cc3c(-c4nnc(C(F)F)s4)nn(C)c23)cn1 [Compound 41] | 6.00 to 7.00 | – | – | –
CC(C)S(=O)(=O)N1CC=C(c2cc(S(=O)(=O)NC3(C(N)=O)CC3)cc3c(-c4nnc(C(F)F)s4)nn(C)c23)CC1 [Compound 17] | 8.00 to 9.00 | – | – | –
CC(C)S(=O)(=O)N1CCC(c2cc(S(=O)(=O)NC3(C#N)CC3)cc3c(-c4nnc(C(F)F)s4)nn(C)c23)=C(F)C1 [Compound 68] | > 9.00 | – | 0.47 | –
CC(C)S(=O)(=O)N1CCC(c2cc(S(=O)(=O)NC3(C#N)CC3)cc3c(-c4nnc(C(F)F)s4)nn(C)c23)=C(CN(C)C)C1 [Compound 71] | > 9.00 | – | 0.342 | 0.308
CC1=C(c2cc(S(=O)(=O)NC3(C#N)CC3)cc3c(-c4nnc(C(F)(F)F)s4)nn(C)c23)CCN(S(=O)(=O)C(C)C)C1 [Compound 75] | > 9.00 | – | – | 0.0352
CC(C)S(=O)(=O)N1CC=C(c2cc(S(=O)(=O)NC3(C(N)=O)CC3)cc3c(-c4nnc(C(F)(F)F)s4)nn(C)c23)CC1 [Compound 57] | 7.00 to 8.00 | – | – | –

SMILES | pIC50 (PARG (389-976); [1]) | pIC50 (PARG (389-976); [2]) | IC50 (HCC1428) [µM] | IC50 (HCC1395) [µM]
CC(C)S(=O)(=O)N1CC=C(c2cc(S(=O)(=O)NC3(C#N)CC3)cc3c(-c4nnc(C(F)F)s4)nn(C)c23)C(F)(F)C1 [Compound 67] | > 9.00 | – | 0.203 | –
CC(C)S(=O)(=O)N1CCC(c2cc(S(=O)(=O)NC3(C#N)CC3)cc3c(-c4nnc(C(F)(F)F)s4)nn(C)c23)=C(C#N)C1 [Compound 64] | > 9.00 | – | 0.0882 | –
Cn1nc(-c2nnc(C(F)(F)F)s2)c2cc(S(=O)(=O)NC3(C#N)CC3)cc(C3=CCN(S(=O)(=O)c4cccnc4)CC3)c21 [Compound 51] | 8.00 to 9.00 | – | 2.52 | –
CC(C)S(=O)(=O)N1CCN(c2cc(S(=O)(=O)NC3(C#N)CC3)cc3c(-c4nnc(C(F)(F)F)s4)nn(C)c23)C=N1 [Compound 85] | > 9.00 | – | – | –
Cn1nc(-c2nnc(C(F)(F)F)s2)c2cc(S(=O)(=O)NC3(C#N)CC3)cc(C3=CCN(S(=O)(=O)c4ccccc4)CC3)c21 [Compound 50] | 7.00 to 8.00 | – | 2.33 | –
CC(C)S(=O)(=O)N1CC=C(c2cc(S(=O)(=O)NC3(C#N)CC3)cc3c(-c4cc(C(F)(F)F)nn4C)nn(C)c23)CC1 [Compound 81] | 6.00 to 7.00 | – | – | –
CC(C)S(=O)(=O)N1CC=C(c2cc(S(=O)(=O)NC3(C#N)CC3)cc3c(-c4nnc(C(F)F)o4)nn(C)c23)CC1 [Compound 6] | > 9.00 | – | – | 0.442
CC(C)S(=O)(=O)N1CCC(c2cc(S(=O)(=O)NC3(C#N)CC3)cc3c(-c4nnc(C(F)F)s4)nn(C)c23)=C(C(=O)O)C1 [Compound 34] | 7.00 to 8.00 | – | – | –
Cc1cc(Cn2c(=O)n(Cc3cnc(C)s3)c(=O)c3cc(S(=O)(=O)NC4(C)CC4)ccc32)n(C)n1 [PDD 00017273, reference compound] | 8.00 to 9.00 | – | – | –
CC(C)S(=O)(=O)N1CC=C(c2cc(S(=O)(=O)NC3(C#N)CC3)cc3c2ccn3-c2nnc(C(F)(F)F)s2)CC1 [Compound 65] | 8.00 to 9.00 | – | – | –
CC(C)[S+]([O-])c1ccc(-c2cc(S(=O)(=O)NC3(C#N)CC3)cc3c(-c4nnc(C(F)(F)F)s4)nn(C)c23)cn1 (centres unmarked) [Compound 46] | > 9.00 | – | 1.7 | –
CN(C)S(=O)(=O)N1CCN(c2cc(S(=O)(=O)NC3(C#N)CC3)cc3c(-c4nnc(C(F)F)s4)nn(C)c23)CC1 [Compound 3] | 8.00 to 9.00 | 8.79 | – | 0.386
CC(C)S(=O)(=O)N1CCN(c2cc(S(=O)(=O)NC3(C#N)CC3)cc3c2cnn3-c2nnc(C(F)F)s2)CC1 [Compound 8] | 8.00 to 9.00 | – | – | –
CC(C)S(=O)(=O)c1ccc(-c2cc(S(=O)(=O)NC3(C#N)CC3)cc3c(-c4nnc(C(F)(F)F)s4)nn(C)c23)cn1 [Compound 47] | 8.00 to 9.00 | – | 1.91 | –
CC(C)[S+]([O-])c1ncc(-c2cc(S(=O)(=O)NC3(C#N)CC3)cc3c(-c4nnc(C(F)F)s4)nn(C)c23)cn1 (centres unmarked) [Compound 42] | 8.00 to 9.00 | – | – | –
CC(C)S(=O)(=O)c1ccc(-c2cc(S(=O)(=O)NC3(C#N)CC3)cc3c(-c4nnc(C(F)F)s4)nn(C)c23)nc1 [Compound 63] | 6.00 to 7.00 | – | – | –
CC(C)S(=O)(=O)N1CCC=C(c2cc(S(=O)(=O)NC3(C#N)CC3)cc3c(-c4nnc(C(F)F)s4)nn(C)c23)C1 [Compound 4] | 8.00 to 9.00 | – | – | –
CC(C)S(=O)(=O)N1CC=C(c2cc(S(=O)(=O)NC3(C#N)CC3)cc3c2nnn3-c2nnc(C(F)(F)F)s2)CC1 [Compound 80] | 7.00 to 8.00 | – | – | –
